Reference: patent US20250382332A1, “NOVEL ALPHA-FACTOR BASED PEPTIDES WITH ANTIFUNGAL ACTIVITY” (INVAIO SCIENCES, INC., priority 2024, published 2025)
Peptide text beside a SMILES is read from it.

System: Botrytis cinerea (B05.10)
Assay: Resazurin antifungal assay of 180 alpha-factor peptide variants towards Botrytis (Example 2)
Format: cell-based
Details: % inhibition of fungal growth, Botrytis conidia, resazurin; for Inhibition at 50 μM: peptide 50 μM; for Inhibition at 100 μM: peptide 100 μM
Outline: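 B. cinerea B05.10 conidia (5000/well) were exposed to peptides at 100, 50, 20, 15 and 10 μM final for 24 h at 20° C. Resazurin was then added and fluorescence read at 570/620 nm. Percent growth inhibition was calculated against conidia-only wells, with four technical replicates.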

| SMILES | Inhibition at 50 μM | Inhibition at 100 μM |
| --- | --- | --- |
| CSCC[C@H](NC(=O)[C@H](Cc1c[nH]cn1)NC(=O)[C@@H](N)Cc1c[nH]c2ccccc12)C(=O)N[C@H](C(=O)N[C@@H](CCC(N)=O)C(=O)N[C@@H](CC(C)C)C(=O)N[C@@H](CCCCN)C(=O)N1CCC[C@H]1C(=O)NCC(=O)N[C@@H](CCC(=O)O)C(=O)N1CCC[C@H]1C(=O)N[C@@H](CCSC)C(=O)N[C@@H](Cc1ccc(O)cc1)C(=O)O)C(C)C [compound 163] (H-WHMVQLKPGEPMY-OH; N-terminus and C-terminus assumed) | <90% | <90% |
| CSCC[C@H](NC(=O)[C@@H]1CCCN1C(=O)[C@H](CCC(N)=O)NC(=O)CNC(=O)[C@@H]1CCCN1C(=O)[C@H](CCCCN)NC(=O)[C@H](CC(C)C)NC(=O)[C@H](CO)NC(=O)[C@H](CC(C)C)NC(=O)[C@@H](NC(=O)CNC(=O)[C@@H](N)CCCCN)[C@@H](C)O)C(=O)N[C@@H](Cc1ccc(O)cc1)C(=O)O [compound 164] (H-KGTLSLKPGQPMY-OH; N-terminus and C-terminus assumed) | <90% | <90% |
| CSCC[C@H](NC(=O)[C@@H]1CCCN1C(=O)[C@H](CCC(N)=O)NC(=O)CNC(=O)[C@@H]1CCCN1C(=O)[C@H](CCCCN)NC(=O)[C@H](Cc1ccccc1)NC(=O)[C@H](CCC(=O)O)NC(=O)[C@H](CC(C)C)NC(=O)[C@H](CO)NC(=O)[C@H](Cc1c[nH]cn1)NC(=O)[C@@H](N)CCCCN)C(=O)N[C@@H](Cc1ccc(O)cc1)C(=O)O [compound 165] (H-KHSLEFKPGQPMY-OH; N-terminus and C-terminus assumed) | <90% | <90% |
| CSCC[C@H](NC(=O)[C@@H]1CCCN1C(=O)[C@H](CCC(N)=O)NC(=O)CNC(=O)[C@H](CCCNC(=N)N)NC(=O)[C@H](CCCCN)NC(=O)[C@H](Cc1ccccc1)NC(=O)[C@H](CCC(N)=O)NC(=O)[C@@H](NC(=O)[C@H](Cc1ccccc1)NC(=O)[C@H](CCC(=O)O)NC(=O)[C@@H](N)Cc1c[nH]c2ccccc12)C(C)C)C(=O)N[C@@H](Cc1ccc(O)cc1)C(=O)O [compound 166] (H-WEFVQFKRGQPMY-OH; N-terminus and C-terminus assumed) | <90% | <90% |
| CSCC[C@H](NC(=O)[C@@H]1CCCN1C(=O)[C@H](CCC(N)=O)NC(=O)CNC(=O)[C@H](CCCNC(=N)N)NC(=O)[C@H](CCC(N)=O)NC(=O)[C@H](Cc1ccccc1)NC(=O)[C@H](CCC(=O)O)NC(=O)[C@H](CC(C)C)NC(=O)[C@H](Cc1c[nH]c2ccccc12)NC(=O)[C@H](Cc1c[nH]cn1)NC(=O)[C@@H](N)Cc1c[nH]c2ccccc12)C(=O)N[C@@H](Cc1ccc(O)cc1)C(=O)O [compound 167] (H-WHWLEFQRGQPMY-OH; N-terminus and C-terminus assumed) | <90% | <90% |
| CSCC[C@H](NC(=O)[C@@H]1CCCN1C(=O)[C@H](CCC(N)=O)NC(=O)CNC(=O)[C@@H]1CCCN1C(=O)[C@H](Cc1c[nH]cn1)NC(=O)[C@H](CC(C)C)NC(=O)[C@H](CCC(N)=O)NC(=O)[C@@H](NC(=O)[C@H](CC(C)C)NC(=O)[C@H](Cc1c[nH]cn1)NC(=O)[C@@H](N)CCCCN)C(C)C)C(=O)N[C@@H](Cc1ccc(O)cc1)C(=O)O [compound 168] (H-KHLVQLHPGQPMY-OH; N-terminus and C-terminus assumed) | <90% | <90% |
| CC[C@H](C)[C@H](NC(=O)[C@@H](NC(=O)[C@H](Cc1c[nH]cn1)NC(=O)[C@@H]1CCCN1)[C@@H](C)O)C(=O)N[C@@H](CCC(N)=O)C(=O)N[C@@H](CC(C)C)C(=O)N[C@@H](Cc1c[nH]c2ccccc12)C(=O)N[C@@H](CCCCN)C(=O)NCC(=O)N[C@@H](CCC(N)=O)C(=O)N1CCC[C@H]1C(=O)N[C@@H](CCSC)C(=O)N[C@@H](Cc1ccc(O)cc1)C(=O)O [compound 169] (H-PHTIQLWKGQPMY-OH; N-terminus and C-terminus assumed) | <90% | <90% |
| CSCC[C@H](NC(=O)[C@H](Cc1c[nH]cn1)NC(=O)[C@@H](N)Cc1c[nH]c2ccccc12)C(=O)N[C@@H](CC(C)C)C(=O)N[C@H](C(=O)N[C@@H](Cc1ccccc1)C(=O)N[C@@H](CCCCN)C(=O)N1CCC[C@H]1C(=O)NCC(=O)N[C@@H](CCC(N)=O)C(=O)N1CCC[C@H]1C(=O)N[C@@H](CCSC)C(=O)N[C@@H](Cc1ccc(O)cc1)C(=O)O)[C@@H](C)O [compound 170] (H-WHMLTFKPGQPMY-OH; N-terminus and C-terminus assumed) | <90% | <90% |
| CSCC[C@H](NC(=O)[C@@H]1CCCN1C(=O)[C@H](CCC(=O)O)NC(=O)CNC(=O)[C@@H]1CCCN1C(=O)[C@H](CCCCN)NC(=O)[C@H](Cc1ccccc1)NC(=O)[C@H](CCC(N)=O)NC(=O)CNC(=O)[C@H](CC(C)C)NC(=O)[C@H](Cc1c[nH]cn1)NC(=O)[C@@H](N)Cc1c[nH]c2ccccc12)C(=O)N[C@@H](Cc1ccc(O)cc1)C(=O)O [compound 171] (H-WHLGQFKPGEPMY-OH; N-terminus and C-terminus assumed) | <90% | <90% |
| CSCC[C@H](NC(=O)[C@@H]1CCCN1C(=O)[C@H](CCSC)NC(=O)CNC(=O)[C@H](CO)NC(=O)[C@H](CCCCN)NC(=O)[C@H](CC(C)C)NC(=O)[C@H](C)NC(=O)CNC(=O)[C@H](Cc1c[nH]c2ccccc12)NC(=O)[C@H](CO)NC(=O)[C@@H](N)Cc1c[nH]c2ccccc12)C(=O)N[C@@H](Cc1ccc(O)cc1)C(=O)O [compound 172] (H-WSWGALKSGMPMY-OH; N-terminus and C-terminus assumed) | <90% | <90% |
| CSCC[C@H](NC(=O)[C@@H]1CCCN1C(=O)[C@H](CCC(N)=O)NC(=O)CNC(=O)[C@H](CC(N)=O)NC(=O)[C@H](CCCCN)NC(=O)[C@H](CC(C)C)NC(=O)[C@H](CCC(N)=O)NC(=O)[C@@H](NC(=O)[C@H](Cc1c[nH]c2ccccc12)NC(=O)[C@H](Cc1c[nH]cn1)NC(=O)[C@@H]1CCCN1)C(C)C)C(=O)N[C@@H](Cc1ccc(O)cc1)C(=O)O [compound 173] (H-PHWVQLKNGQPMY-OH; N-terminus and C-terminus assumed) | <90% | <90% |
| CSCC[C@H](NC(=O)[C@@H]1CCCN1C(=O)[C@H](CCC(N)=O)NC(=O)CNC(=O)[C@@H]1CCCN1C(=O)[C@H](Cc1c[nH]cn1)NC(=O)[C@H](CC(C)C)NC(=O)[C@H](CCC(N)=O)NC(=O)[C@@H](NC(=O)[C@H](CO)NC(=O)[C@H](Cc1c[nH]cn1)NC(=O)[C@@H](N)Cc1c[nH]c2ccccc12)C(C)C)C(=O)N[C@@H](Cc1ccc(O)cc1)C(=O)O [compound 174] (H-WHSVQLHPGQPMY-OH; N-terminus and C-terminus assumed) | <90% | <90% |
| CC[C@H](C)[C@H](NC(=O)[C@H](Cc1c[nH]c2ccccc12)NC(=O)[C@H](CCCCN)NC(=O)[C@@H](N)CCCCN)C(=O)N[C@@H](CCC(N)=O)C(=O)N[C@@H](CC(C)C)C(=O)N[C@@H](CCCCN)C(=O)N1CCC[C@H]1C(=O)NCC(=O)N[C@@H](CCC(=O)O)C(=O)N1CCC[C@H]1C(=O)N[C@@H](CCSC)C(=O)N[C@@H](Cc1ccc(O)cc1)C(=O)O [compound 175] (H-KKWIQLKPGEPMY-OH; N-terminus and C-terminus assumed) | <90% | <90% |
| CSCC[C@H](NC(=O)[C@@H]1CCCN1C(=O)[C@H](CO)NC(=O)CNC(=O)[C@H](CCCNC(=N)N)NC(=O)[C@H](CCCCN)NC(=O)[C@H](CC(C)C)NC(=O)[C@H](CC(N)=O)NC(=O)[C@@H](NC(=O)[C@H](CC(=O)O)NC(=O)[C@H](Cc1c[nH]cn1)NC(=O)[C@@H](N)Cc1c[nH]c2ccccc12)C(C)C)C(=O)N[C@@H](Cc1ccc(O)cc1)C(=O)O [compound 176] (H-WHDVNLKRGSPMY-OH; N-terminus and C-terminus assumed) | <90% | <90% |
| CSCC[C@H](NC(=O)[C@@H]1CCCN1C(=O)[C@H](CCC(N)=O)NC(=O)CNC(=O)[C@@H]1CCCN1C(=O)[C@H](CCCCN)NC(=O)[C@H](Cc1ccccc1)NC(=O)[C@H](CCC(=O)O)NC(=O)[C@H](CC(C)C)NC(=O)[C@@H](NC(=O)[C@H](Cc1c[nH]cn1)NC(=O)[C@@H](N)CCCCN)[C@@H](C)O)C(=O)N[C@@H](Cc1ccc(O)cc1)C(=O)O [compound 177] (H-KHTLEFKPGQPMY-OH; N-terminus and C-terminus assumed) | <90% | <90% |
| CSCC[C@H](NC(=O)[C@@H]1CCCN1C(=O)[C@H](CCC(N)=O)NC(=O)CNC(=O)[C@@H]1CCCN1C(=O)[C@H](Cc1c[nH]c2ccccc12)NC(=O)[C@H](Cc1ccccc1)NC(=O)[C@H](CCC(N)=O)NC(=O)[C@@H](NC(=O)[C@H](CO)NC(=O)[C@H](Cc1c[nH]cn1)NC(=O)[C@@H](N)Cc1c[nH]c2ccccc12)C(C)C)C(=O)N[C@@H](Cc1ccc(O)cc1)C(=O)O [compound 178] (H-WHSVQFWPGQPMY-OH; N-terminus and C-terminus assumed) | <90% | 97.30% |
| CSCC[C@H](NC(=O)[C@@H]1CCCN1C(=O)[C@H](CCC(N)=O)NC(=O)CNC(=O)[C@@H]1CCCN1C(=O)[C@H](CCCCN)NC(=O)[C@H](CC(C)C)NC(=O)[C@H](CCC(=O)O)NC(=O)[C@H](CC(C)C)NC(=O)[C@H](Cc1ccccc1)NC(=O)[C@H](Cc1c[nH]cn1)NC(=O)[C@@H](N)CCCCN)C(=O)N[C@@H](Cc1ccc(O)cc1)C(=O)O [compound 179] (H-KHFLELKPGQPMY-OH; N-terminus and C-terminus assumed) | <90% | <90% |
